Like-named read-outs stand apart in the source and are kept apart here.
Tests used:
[1] = test system: CR6258 Tumor; assay: In vivo PDX model, Compound 478 and Cetuximab (Table 5a); design: species or system nude/nude mice; conditions: for Average Tumor Volumes: CR6258, Cetuximab 0.25 mg/kg i.p. every third day, single or combined
Description: (§1) Immunocompromised nude/nude mice were inoculated in the right hind flank with cells or patient derived tumor samples harboring a KRas G12C mutation. […] The first group was administered vehicle only. […] The fourth group was administered the single agent dose of the KRas G12C inhibitor in combination with the single agent dose of the pan ErbB family inhibitor. […] Tumor volumes were measured using a caliper every two-three days and tumor volumes were calculated by the formula: 0.5×(Length×Width)^2.
(§2) In a related experiment, on Day 1, two sets of 20 nude/nude mice each were inoculated in the right hind limb with 5×10^6 CR6256 cells or CR2528 cells (PDX models). […] Tumor volumes were measured at pre-specified days set forth below.

[2] = test system: CR2528 cells (PDX models); assay: In vivo PDX model, Compound 478 and Cetuximab (Table 5b); design: species or system nude/nude mice; conditions: for Average Tumor Volumes: CR2528, Cetuximab 0.25 mg/kg i.p. every third day, single or combined
Description: as §1, §2

[3] = test system: KYSE-410 cells; conditions: KYSE-410-implanted mice; Day 61 (Treatment Day 50); single agent 100 mg/kg p.o. daily; Table 6a
Description: as §1
(§3) Tumor volumes were measured at pre-specified days set forth below.

[4] = test system: H2122 cells; conditions: H2122-implanted mice; Day 46 (Treatment Day 35); single agent 100 mg/kg p.o. daily; Table 6b
Description: as §1, §3

[5] = test system: LU6405 cells (PDX model); assay: In vivo PDX model, Compound 478 and Afatinib (Table 4c); conditions: for Average Tumor Volumes: LU6405, Afatinib 12.5 mg/kg, single or combined
Description: as §1, §3

[6] = test system: H2122 cells; assay: In vivo tumor model, Compound 478 and Afatinib (Table 4a); conditions: for Average Tumor Volumes: H2122, Afatinib 12.5 mg/kg, single or combined
Description: as §1, §3

[7] = test system: KYSE-410 cells; assay: In vivo tumor model, Compound 478 and Afatinib (Table 4b); conditions: for Average Tumor Volumes: KYSE-410, Afatinib 12.5 mg/kg, single or combined
Description: as §1, §3

[8] = Day 11 post implant (treatment start), Compound 478 100 mg/kg p.o. daily
[9] = Day 11 post implant (treatment start), p.o. daily: Compound 478 100 mg/kg
[10] = Day 14 post implant, p.o. daily from Day 11: Compound 478 100 mg/kg
[11] = Day 18 post implant, p.o. daily from Day 11: Compound 478 100 mg/kg
[12] = Day 21 post implant, p.o. daily from Day 11: Compound 478 100 mg/kg
[13] = Day 25 post implant, p.o. daily from Day 11: Compound 478 100 mg/kg
[14] = Day 28 post implant, p.o. daily from Day 11: Compound 478 100 mg/kg
[15] = Day 32 post implant, p.o. daily from Day 11: Compound 478 100 mg/kg
[16] = Day 34 post implant, p.o. daily from Day 11: Compound 478 100 mg/kg

SMILES: C=C(F)C(=O)N1CCN(c2nc(OC[C@@H]3CCCN3C)nc3c2CCN(c2cccc4cccc(Cl)c24)C3)C[C@@H]1CC#N [Compound 478]
- tumor regression ([1]; CR6258-implanted mice, Day 37 (Treatment Day 27), Compound 478 100 mg/kg p.o. daily alone or with cetuximab 0.25 mg/kg i.p. every three days): 71%
- Average Tumor Volumes [1, 8]: 190.54 mm^3
- Average Tumor Volumes ([1]; Day 18 post implant, from Day 11: Compound 478 100 mg/kg p.o. daily): 256.91 mm^3
- Average Tumor Volumes ([1]; Day 25 post implant, from Day 11: Compound 478 100 mg/kg p.o. daily): 201.00 mm^3
- Average Tumor Volumes ([1]; Day 28 post implant, from Day 11: Compound 478 100 mg/kg p.o. daily): 128.77 mm^3
- Average Tumor Volumes ([1]; Day 32 post implant, from Day 11: Compound 478 100 mg/kg p.o. daily): 77.44 mm^3
- Average Tumor Volumes ([1]; Day 35 post implant, from Day 11: Compound 478 100 mg/kg p.o. daily): 56.15 mm^3
- Average Tumor Volumes ([1]; Day 39 post implant, from Day 11: Compound 478 100 mg/kg p.o. daily): 44.24 mm^3
- Average Tumor Volumes ([1]; Day 42 post implant, from Day 11: Compound 478 100 mg/kg p.o. daily): 41.80 mm^3
- Average Tumor Volumes ([1]; Day 46 post implant, from Day 11: Compound 478 100 mg/kg p.o. daily): 29.92 mm^3
- Average Tumor Volumes ([1]; Day 49 post implant, from Day 11: Compound 478 100 mg/kg p.o. daily): 19.79 mm^3
- single-agent anti-tumor activity ([2]; CR2528-implanted mice, Day 34 (Treatment Day 24), 100 mg/kg p.o. daily): no single-agent anti-tumor activity
- Average Tumor Volumes [2, 8]: 265.11 mm^3
- Average Tumor Volumes ([2]; Day 14 post implant, from Day 11: Compound 478 100 mg/kg p.o. daily): 350.48 mm^3
- Average Tumor Volumes ([2]; Day 17 post implant, from Day 11: Compound 478 100 mg/kg p.o. daily): 434.64 mm^3
- Average Tumor Volumes ([2]; Day 20 post implant, from Day 11: Compound 478 100 mg/kg p.o. daily): 656.73 mm^3
- Average Tumor Volumes ([2]; Day 24 post implant, from Day 11: Compound 478 100 mg/kg p.o. daily): 950.91 mm^3
- Average Tumor Volumes ([2]; Day 27 post implant, from Day 11: Compound 478 100 mg/kg p.o. daily): 1252.80 mm^3
- Average Tumor Volumes ([2]; Day 31 post implant, from Day 11: Compound 478 100 mg/kg p.o. daily): 1713.13 mm^3
- Average Tumor Volumes ([2]; Day 34 post implant, from Day 11: Compound 478 100 mg/kg p.o. daily): 2757.63 mm^3
- tumor growth inhibition [3]: 71%
- tumor regression [4]: 3%
- Average Tumor Volumes [5, 9]: 256.06 mm^3
- Average Tumor Volumes [5, 10]: 308.98 mm^3
- Average Tumor Volumes [5, 11]: 324.46 mm^3
- Average Tumor Volumes [5, 12]: 329.09 mm^3
- Average Tumor Volumes [5, 13]: 310.21 mm^3
- Average Tumor Volumes [5, 14]: 290.88 mm^3
- Average Tumor Volumes [5, 15]: 257.34 mm^3
- Average Tumor Volumes [5, 16]: 249.19 mm^3
- tumor growth inhibition ([5]; LU6405-implanted mice, Day 34 (Treatment Day 24), single agent 100 mg/kg p.o. daily): 96%
- Average Tumor Volumes [6, 9]: 325.05 mm^3
- Average Tumor Volumes ([6]; Day 13 post implant, p.o. daily from Day 11: Compound 478 100 mg/kg): 339.80 mm^3
- Average Tumor Volumes ([6]; Day 15 post implant, p.o. daily from Day 11: Compound 478 100 mg/kg): 337.58 mm^3
- Average Tumor Volumes [6, 11]: 381.78 mm^3
- Average Tumor Volumes ([6]; Day 20 post implant, p.o. daily from Day 11: Compound 478 100 mg/kg): 462.40 mm^3
- Average Tumor Volumes ([6]; Day 22 post implant, p.o. daily from Day 11: Compound 478 100 mg/kg): 479.48 mm^3
- Average Tumor Volumes [6, 13]: 492.76 mm^3
- Average Tumor Volumes ([6]; Day 27 post implant, p.o. daily from Day 11: Compound 478 100 mg/kg): 541.06 mm^3
- Average Tumor Volumes ([6]; Day 29 post implant, p.o. daily from Day 11: Compound 478 100 mg/kg): 537.14 mm^3
- Average Tumor Volumes [6, 15]: 547.06 mm^3
- Average Tumor Volumes [6, 16]: 546.96 mm^3
- tumor growth inhibition ([6]; H2122 tumor bearing mice, Day 22 (Treatment Day 10), single agent, Compound 478 100 mg/kg, afatinib 12.5 mg/kg p.o. daily): 85%
- Average Tumor Volumes [7, 9]: 307.30 mm^3
- Average Tumor Volumes [7, 10]: 274.64 mm^3
- Average Tumor Volumes ([7]; Day 16 post implant, p.o. daily from Day 11: Compound 478 100 mg/kg): 311.34 mm^3
- Average Tumor Volumes [7, 11]: 297.62 mm^3
- Average Tumor Volumes [7, 12]: 338.18 mm^3
- Average Tumor Volumes ([7]; Day 23 post implant, p.o. daily from Day 11: Compound 478 100 mg/kg): 320.42 mm^3
- Average Tumor Volumes [7, 13]: 358.68 mm^3
- Average Tumor Volumes [7, 14]: 459.20 mm^3
- Average Tumor Volumes ([7]; Day 30 post implant, p.o. daily from Day 11: Compound 478 100 mg/kg): 441.60 mm^3
- Average Tumor Volumes [7, 15]: 480.62 mm^3
- Average Tumor Volumes ([7]; Day 37 post implant, p.o. daily from Day 11: Compound 478 100 mg/kg): 525.86 mm^3
- tumor growth inhibition ([7]; KYSE-410 tumor bearing mice, Day 37 (Treatment Day 27), single agent 100 mg/kg p.o. daily): 64%
